Where two headings read alike, the source gives them in different places.
What was measured:
human Gal-3 (hGal-3) = human Gal-3 (hGal-3) (Homo sapiens (Human), UniProt P17931); experiment: competitive binding assay: biotinylated hGal-3 binding to microplate-adsorbed asialofetuin (ASF)
How it was run: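 Competition of compounds with biotinylated human Gal-3 for asialofetuin-coated plates, 3 hours at 4° C. Bound Gal-3 detected with streptavidin-peroxidase (80 ng/mL, 1 hour, 4° C) and ABTS substrate. IC50 reported as the mean of several measurements.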

human Gal-1 (hGal-1) = human Gal-1 (hGal-1) (Homo sapiens (Human), UniProt P09382); experiment: competitive binding assay: biotinylated hGal-1 binding to microplate-adsorbed asialofetuin (ASF); conditions: Table 15; read-out: IC50 (Galectin-1 inhibition)
How it was run: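 Biotinylated human Gal-1 (300-1000 ng/mL) competes with serially diluted compound for binding to ASF-coated plates, 3 h at 4° C. Bound protein detected with streptavidin-peroxidase and ABTS substrate (spectrophotometric). IC50 given as mean of several measurements.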

[1] = Table 5, read-out: IC50 (Gal-3 inhibition)
[2] = Gal-3 inhibition, binding of biotinylated hGal-3 to ASF, mean values, read-out: IC50
[3] = Table 11, read-out: IC50 (Gal-3 inhibition)

Chain of human Gal-1 (hGal-1) (P09382 whole entry): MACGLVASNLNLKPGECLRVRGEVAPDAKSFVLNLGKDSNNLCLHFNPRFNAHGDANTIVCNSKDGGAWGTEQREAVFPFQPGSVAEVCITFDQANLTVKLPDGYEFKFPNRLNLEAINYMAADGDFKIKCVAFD
Chain of human Gal-3 (hGal-3) (P17931 whole entry): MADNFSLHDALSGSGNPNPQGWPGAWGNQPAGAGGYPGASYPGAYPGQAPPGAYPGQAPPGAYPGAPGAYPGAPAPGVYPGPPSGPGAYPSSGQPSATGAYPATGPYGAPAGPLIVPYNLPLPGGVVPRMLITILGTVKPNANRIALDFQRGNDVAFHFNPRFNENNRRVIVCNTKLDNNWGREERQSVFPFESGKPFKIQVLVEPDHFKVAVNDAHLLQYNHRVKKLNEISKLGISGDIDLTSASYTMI

Structure (SMILES) | IC50 (human Gal-3 (hGal-3); [1]) | IC50 (human Gal-1 (hGal-1)) | IC50 (human Gal-3 (hGal-3); [2]) | other results
OC[C@H]1O[C@@H](S[C@H](c2ccccc2C(F)(F)F)C2(O)CC(F)(F)C2)[C@H](O)[C@@H](n2cc(-c3cc(F)c(F)c(F)c3)nn2)[C@H]1O [Example 2.33.112R., (2S,3R,4S,5R,6R)-2-(((R)-(3,3-Difluoro-1-hydroxycyclobutyl)(2-(trifluoromethyl)phenyl)methyl)thio)-6-(hydroxymethyl)-4-(4-(3,4,5-trifluorophenyl)-1H-1,2,3-triazol-1-yl)tetrahydro-2H-pyran-3,5-diol] | 140 nM | 670 nM | – | –
CCc1onc([C@@H](S[C@@H]2O[C@H](CO)[C@H](O)[C@H](n3cc(-c4cc(F)c(F)c(F)c4)nn3)[C@H]2OC)C2(O)CCC(F)(F)CC2)c1C [Example 2.44.140R.I., (2R,3R,4S,5R,6S)-6-(((R)-(4,4-Difluoro-1-hydroxycyclohexyl)(5-ethyl-4-methylisoxazol-3-yl)methyl)thio)-2-(hydroxymethyl)-5-methoxy-4-(4-(3,4,5-trifluorophenyl)-1H-1,2,3-triazol-1-yl)tetrahydro-2H-pyran-3-ol] | – | 700 nM | – | IC50 (human Gal-3 (hGal-3); Table 10, 2-OMe-Gal inhibitors, read-out: IC50 (Gal-3 inhibition)): 120 nM
Cc1cccnc1[C@H](S[C@@H]1O[C@H](CO)[C@H](O)[C@H](n2cc(-c3cc(F)c(F)c(F)c3)nn2)[C@H]1O)C1(O)CCS(=O)(=O)CC1 [Example 2.66.126S., 4-((S)-(((2S,3R,4S,5R,6R)-3,5-Dihydroxy-6-(hydroxymethyl)-4-(4-(3,4,5-trifluorophenyl)-1H-1,2,3-triazol-1-yl)tetrahydro-2H-pyran-2-yl)thio)(3-methylpyridin-2-yl)methyl)-4-hydroxytetrahydro-2H-thiopyran 1,1-dioxide] | – | 16500 nM | 2000 nM | –
CO[C@@H]1[C@@H](n2cc(-c3cc(F)c(F)c(F)c3)nn2)[C@@H](O)[C@@H](CO)O[C@H]1SC(c1nc(C)c(C)nc1C)C1(O)CCC(F)(F)CC1 (stereo partly drawn) [Example 2.44.119.I., (2R,3R,4S,5R,6S)-6-(((4,4-Difluoro-1-hydroxycyclohexyl)(3,5,6-trimethylpyrazin-2-yl)methyl)thio)-2-(hydroxymethyl)-5-methoxy-4-(4-(3,4,5-trifluorophenyl)-1H-1,2,3-triazol-1-yl)tetrahydro-2H-pyran-3-ol] | – | 1300 nM | – | IC50 (human Gal-3 (hGal-3); [3]): 260 nM
CO[C@@H]1[C@@H](n2cc(-c3cc(F)c(F)c(F)c3)nn2)[C@@H](O)[C@@H](CO)O[C@H]1SC(c1nccc(C(F)(F)F)c1C)C1(O)CCC(F)(F)CC1 (stereo partly drawn) [Example 2.44.147.I., (2R,3R,4S,5R,6S)-6-(((4,4-Difluoro-1-hydroxycyclohexyl)(3-methyl-4-(trifluoromethyl)pyridin-2-yl)methyl)thio)-2-(hydroxymethyl)-5-methoxy-4-(4-(3,4,5-trifluorophenyl)-1H-1,2,3-triazol-1-yl)tetrahydro-2H-pyran-3-ol] | – | 1240 nM | – | IC50 (human Gal-3 (hGal-3); [3]): 240 nM
Cc1ccccc1[C@@H](S[C@@H]1O[C@H](CO)[C@H](O)[C@H](n2cc(-c3cc(F)c(F)c(F)c3)nn2)[C@H]1O)C1(O)CCOCC1 [Example 2.41.102R.] | 40 nM | 210 nM | – | –
Cc1noc(C2CC2)c1[C@H](S[C@@H]1O[C@H](CO)[C@H](O)[C@H](n2cc(-c3cc(F)c(F)c(F)c3)nn2)[C@H]1O)C1(O)CCCCC1 [Example 2.39.128S., (2S,3R,4S,5R,6R)-2-(((S)-(5-Cyclopropyl-3-methylisoxazol-4-yl)(1-hydroxycyclohexyl)methyl)thio)-6-(hydroxymethyl)-4-(4-(3,4,5-trifluorophenyl)-1H-1,2,3-triazol-1-yl)tetrahydro-2H-pyran-3,5-diol] | 3210 nM | 23200 nM | – | –
Cc1nc([C@@H](S[C@@H]2O[C@H](CO)[C@H](O)[C@H](n3cc(-c4cc(F)c(F)c(F)c4)nn3)[C@H]2O)C(C)(C)O)c(C)o1 [Example 2.31.122R., (2S,3R,4S,5R,6R)-2-(((R)-1-(2,5-Dimethyloxazol-4-yl)-2-hydroxy-2-methylpropyl)thio)-6-(hydroxymethyl)-4-(4-(3,4,5-trifluorophenyl)-1H-1,2,3-triazol-1-yl)tetrahydro-2H-pyran-3,5-diol] | – | 670 nM | 370 nM | –
CN1CCC(O)([C@H](S[C@@H]2O[C@H](CO)[C@H](O)[C@H](n3cc(-c4cc(F)c(F)c(F)c4)nn3)[C@H]2O)c2ncccc2C(F)(F)F)CC1 [Example 2.40.125R., (2S,3R,4S,5R,6R)-2-(((R)-(4-Hydroxy-1-methylpiperidin-4-yl)(3-(trifluoromethyl)pyridin-2-yl)methyl)thio)-6-(hydroxymethyl)-4-(4-(3,4,5-trifluorophenyl)-1H-1,2,3-triazol-1-yl)tetrahydro-2H-pyran-3,5-diol] | 20 nM | 40 nM | – | –
Cc1ccccc1C(O)C(S[C@@H]1O[C@H](CO)[C@H](O)[C@H](n2cc(-c3cc(F)c(F)c(F)c3)nn2)[C@H]1O)c1ccccc1C(F)(F)F (stereo partly drawn) [Example 2.62.112., (2S,3R,4S,5R,6R)-2-((2-Hydroxy-2-(o-tolyl)-1-(2-(trifluoromethyl)phenyl)ethyl)thio)-6-(hydroxymethyl)-4-(4-(3,4,5-trifluorophenyl)-1H-1,2,3-triazol-1-yl)tetrahydro-2H-pyran-3,5-diol] | – | 11700 nM | 1220 nM | –
CC(C)c1ccccc1C(S[C@@H]1O[C@H](CO)[C@H](O)[C@H](n2cc(-c3cc(F)c(F)c(F)c3)nn2)[C@H]1O)C1(O)CCC(F)(F)CC1 (stereo partly drawn) [Example 2.44.105., (2S,3R,4S,5R,6R)-2-(((4,4-Difluoro-1-hydroxycyclohexyl)(2-isopropylphenyl)methyl)thio)-6-(hydroxymethyl)-4-(4-(3,4,5-trifluorophenyl)-1H-1,2,3-triazol-1-yl)tetrahydro-2H-pyran-3,5-diol [1,3-di-deoxy-1-((4,4-difluoro-1-hydroxy-cyclohexan-1-yl)-(2-(-isopropyl)phenyl)methyl-thio)-3-[4-(3,4,5-trifluorophenyl)-1H-1,2,3-triazol-1-yl]-β-D-galactopyranoside]] | 140 nM | 80 nM | – | –
CC(C)c1cccnc1[C@H](S[C@@H]1O[C@H](CO)[C@H](O)[C@H](n2cc(-c3cc(F)c(F)c(F)c3)nn2)[C@H]1O)C1(O)CCC(F)(F)CC1 [Example 2.44.132S., (2S,3R,4S,5R,6R)-2-(((S)-(4,4-Difluoro-1-hydroxycyclohexyl)(3-isopropylpyridin-2-yl)methyl)thio)-6-(hydroxymethyl)-4-(4-(3,4,5-trifluorophenyl)-1H-1,2,3-triazol-1-yl)tetrahydro-2H-pyran-3,5-diol] | – | 4700 nM | 2270 nM | –
CO[C@@H]1[C@@H](n2cc(-c3ccc(F)c(F)c3)nn2)[C@@H](O)[C@@H](CO)O[C@H]1SC(c1ncccc1C)C1(O)CCC(F)(F)CC1 (stereo partly drawn) [Example 16.44.126.I., (2R,3R,4S,5R,6S)-6-(((4,4-Difluoro-1-hydroxycyclohexyl)(3-methylpyridin-2-yl)methyl)thio)-4-(4-(3,4-difluorophenyl)-1H-1,2,3-triazol-1-yl)-2-(hydroxymethyl)-5-methoxytetrahydro-2H-pyran-3-ol] | – | 730 nM | – | IC50 (human Gal-3 (hGal-3); Table 14, read-out: IC50 (Gal-3 inhibition)): 90 nM
CO[C@@H]1[C@@H](n2cc(-c3cc(F)c(F)c(F)c3)nn2)[C@@H](O)[C@@H](CO)O[C@H]1S[C@H](c1ncccc1C)C1(O)CCOCC1 [Example 2.41.126R.I., (2R,3R,4S,5R,6S)-2-(Hydroxymethyl)-6-(((R)-(4-hydroxytetrahydro-2H-pyran-4-yl)(3-methylpyridin-2-yl)methyl)thio)-5-methoxy-4-(4-(3,4,5-trifluorophenyl)-1H-1,2,3-triazol-1-yl)tetrahydro-2H-pyran-3-ol] | – | 800 nM | – | IC50 (human Gal-3 (hGal-3); Table 9, 2-OMe-Gal inhibitors, read-out: IC50 (Gal-3 inhibition)): 60 nM
CCO[C@@H]1[C@@H](n2cc(-c3cc(F)c(F)c(F)c3)nn2)[C@@H](O)[C@@H](CO)O[C@H]1S[C@@H](c1ncccc1C)C1(O)CCC(F)(F)CC1 [Example 2.44.126S.II., (2R,3R,4S,5R,6S)-6-(((S)-(4,4-Difluoro-1-hydroxycyclohexyl)(3-methylpyridin-2-yl)methyl)thio)-5-ethoxy-2-(hydroxymethyl)-4-(4-(3,4,5-trifluorophenyl)-1H-1,2,3-triazol-1-yl)tetrahydro-2H-pyran-3-ol] | – | 24300 nM | 980 nM | –
Cc1nc(C)c([C@H](S[C@@H]2O[C@H](CO)[C@H](O)[C@H](n3cc(-c4cc(F)c(F)c(F)c4)nn3)[C@H]2O)C2(O)CCOCC2)nc1C [Example 2.41.119S., (2R,3R,4S,5R,6S)-2-(Hydroxymethyl)-6-(((S)-(4-hydroxytetrahydro-2H-pyran-4-yl)(3,5,6-trimethylpyrazin-2-yl)methyl)thio)-4-(4-(3,4,5-trifluorophenyl)-1H-1,2,3-triazol-1-yl)tetrahydro-2H-pyran-3,5-diol] | 2990 nM | 19900 nM | – | –
CC(C)(O)[C@H](S[C@@H]1O[C@H](CO)[C@H](O)[C@H](n2cc(-c3cc(F)c(F)c(F)c3)nn2)[C@H]1O)c1ccccc1C(F)(F)F [Example 2.31.112R., (2S,3R,4S,5R,6R)-2-(((R)-2-Hydroxy-2-methyl-1-(2-(trifluoromethyl)phenyl)propyl)thio)-6-(hydroxymethyl)-4-(4-(3,4,5-trifluorophenyl)-1H-1,2,3-triazol-1-yl)tetrahydro-2H-pyran-3,5-diol] | – | 2610 nM | 290 nM | –

Source: US12404295B2, “(Hetero)aryl-methyl-thio-beta-D-galactopyranoside derivatives” (Idorsia Pharmaceuticals Ltd, priority 2019, dated 2025)
